Measured values as given in PubChem BioAssay (NCI).
Values joined by “and” are separate entries in the source; they are usually repeats but may differ in a detail not shown here. Equal values may be shown once.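 Grown in 96-well plates, cells were treated for 48 hours with each compound at five concentrations. Insufficient inhibition: endpoint recorded as highest concentration tested. At the GI50, growth is halved. The concentration for full growth arrest is given as TGI.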

How the values were obtained:
Experiment in all cases: NCI anticancer screen, dose series, 48 h
[1] = system: MDA-MB-435
[2] = system: SW-620 colon
[3] = system: OVCAR-4 ovarian
[4] = system: PC-3 prostate
[5] = system: SNB-75 CNS
[6] = system: OVCAR-5 ovarian
[7] = system: SNB-19 CNS
[8] = system: UACC-62 melanoma
[9] = system: A498 renal
[10] = system: NCI-H23 lung

SMILES	TGI [1]	TGI [2]	TGI [3]	TGI [4]	TGI [5]	TGI [6]	TGI [7]	TGI [8]	TGI [9]	TGI [10]	GI50 [1]	GI50 [2]	GI50 [3]	GI50 [4]	GI50 [5]	GI50 [6]	GI50 [7]	GI50 [8]	GI50 [9]	GI50 [10] [µM]
CCCCNS(=O)(=O)c1n[nH]c(=O)[nH]c1=O	> 100 µM	> 100 µM	> 100 µM	> 100 µM	> 100 µM	> 100 µM	> 100 µM	> 100 µM	> 100 µM	> 100 µM	–	–	–	–	–	–	–	–	–	–
CC(=O)CC/C=C(\C)[C@H](O)[C@H](C)C(=O)O[C@H]1C[C@H](C)C=C2C=C[C@@]3(C)O[C@@H](O)CC(=O)[C@]3(C)[C@H]21	2.09 µM	9.03 µM	6.05 µM	3.31 µM	2.61 µM	6.62 µM	2.49 µM	2.14 µM	7.95 µM	2.44 µM	0.508 µM	0.449 µM	1.78 µM	0.61 µM	0.686 µM	1.04 µM	0.331 µM	0.618 µM	2.55 µM	0.384
COc1ccc(CCN(CC(=O)N(CC(N)=O)C2CCC[C@@H]2OCc2ccccc2)C(=O)CN(C(=O)CN(CCc2ccc(Cl)cc2)C(=O)CN(C(=O)CN(C)Cc2ccccc2F)[C@H](C)C2CCCCC2)[C@H](C)C2CCCCC2)cc1OC (some centres undefined)	> 50 µM	> 50 µM	> 50 µM	> 50 µM	> 50 µM	> 50 µM	> 50 µM	> 50 µM	> 50 µM	> 50 µM	1.58 µM	2.56 µM	1.95 µM	1.37 µM	1.09 µM	2.24 µM	1.64 µM	1.42 µM	1.84 µM	3.26
NC(=S)N/N=C1\c2ccccc2-c2c(F)c(F)c(F)c(F)c21	20.6 µM	3.66 µM	3.52 µM	28.3 µM	21.6 µM	30.5 µM	29.2 µM	24.6 µM	55.7 µM	25 µM	7.44 µM	1.79 µM	1.65 µM	10.1 µM	6.36 µM	13.6 µM	11.4 µM	8.97 µM	16.5 µM	9.79
CC1(C)N=C(N)N=C(N)N1c1ccc(OCCCNC(=O)Nc2cccc(S(=O)(=O)F)c2)c(Cl)c1	> 100 µM	> 100 µM	> 100 µM	> 100 µM	> 100 µM	> 100 µM	> 100 µM	> 100 µM	> 100 µM	> 100 µM	2.14 µM	1.64 µM	> 100 µM	1.23 µM	2.73 µM	3.98 µM	1.22 µM	1.43 µM	21.9 µM	3.65
CC1(C)N=C(N)N=C(N)N1c1ccc(Cl)cc1	> 100 µM	> 100 µM	> 100 µM	> 100 µM	> 100 µM	> 100 µM	> 100 µM	> 100 µM	> 100 µM	> 100 µM	1.18 µM	0.832 µM	14.9 µM	6.07 µM	8.16 µM	0.854 µM	16.7 µM	4.09 µM	> 100 µM	2.51
COC(=O)c1cc2oc(/C=C3/SC(=S)N(N)C3=O)cc2n1Cc1ccccc1	> 41.5 µM	> 29.5 µM	42.8 µM	> 31.9 µM	11.3 µM	20.7 µM	35.2 µM	36.1 µM	6.48 µM	21.2 µM	6.65 µM	13.4 µM	4.68 µM	9.61 µM	0.887 µM	4.65 µM	5.79 µM	10.6 µM	2.16 µM	4.46
CC(C)(C)c1cc(NC(=O)Nc2ccc(-c3cn4c(n3)sc3cc(OCCN5CCOCC5)ccc34)cc2)no1	27.7 µM and 21.2 µM and > 10 µM	27.2 µM and 17.6 µM and > 10 µM	15.8 µM and 5.96 µM and > 10 µM	19.1 µM and 14.2 µM and > 10 µM	6.52 µM and 19.1 µM and > 10 µM	86.9 µM and 22.7 µM and > 10 µM	20.3 µM and 17.1 µM and > 10 µM	15.2 µM and 9.53 µM	28.4 µM and 11 µM and > 10 µM	26.8 µM and 12.8 µM and > 10 µM	6.85 µM and 4.32 µM and 7.3 µM	11.4 µM and 2.86 µM and > 10 µM	4.61 µM and 1.38 µM and 3.38 µM	4.63 µM and 0.771 µM and 5.06 µM	1.41 µM and 2.38 µM and 1.94 µM	21.7 µM and 9.53 µM and > 10 µM	3.46 µM and 1.71 µM and 4.26 µM	1.34 µM and 1.4 µM	13.9 µM and 2.13 µM and > 10 µM	–
Cn1c(=O)nc2n(-c3ccc(Cl)cc3)c3cc(Cl)ccc3nc-2c1=O	3.14 µM	4.22 µM	2.53 µM	24.1 µM	14.8 µM	29.1 µM	27.9 µM	3.57 µM	27.6 µM	6.06 µM	–	–	–	–	–	–	–	–	–	–
Cc1cnc2oc3ccc(O)cc3c2c1-c1ccccc1	> 100 µM	> 100 µM	> 100 µM	> 100 µM	> 100 µM	> 100 µM	> 100 µM	50.8 µM	70.5 µM	> 100 µM	> 100 µM	> 100 µM	> 100 µM	6.51 µM	21.2 µM	> 100 µM	34.3 µM	6.02 µM	21.5 µM	21.6
CN(C)CC(=O)Nc1ccc2ncnc(Nc3ccc(Oc4cccc(C(F)(F)F)c4)c(Cl)c3)c2c1	3.14 µM	3.3 µM	5.83 µM	4.5 µM	2.82 µM	12.9 µM	14.4 µM	3.69 µM	4.92 µM	14.8 µM	1.66 µM	1.66 µM	1.96 µM	1.82 µM	1.33 µM	3.04 µM	3.34 µM	1.91 µM	1.62 µM	3.79
Cn1c2c(c3ccccc31)CCN(CCCCN1CCN(c3ccccc3)CC1)C2=O	36.7 µM	> 56.2 µM	> 100 µM	86.6 µM	> 100 µM	80.9 µM	> 100 µM	> 68.7 µM	> 100 µM	> 76.8 µM	–	–	–	–	–	–	–	–	–	–
C=CC(=O)N1C[C@@H]2CCOc3c(Cl)c(-c4c(O)cccc4F)c(F)c4ncnc(c34)N2C[C@H]1C	29.6 µM	33.1 µM	72 µM	> 100 µM	23.5 µM	31.1 µM	28 µM	18.8 µM	28.1 µM	13.1 µM	11.8 µM	13.9 µM	9.18 µM	17.9 µM	10.8 µM	16.3 µM	14.6 µM	4.17 µM	13.6 µM	0.0328
